Measurements as given in paper PMC5423974 (European Journal of Clinical Pharmacology, 2017).
Several values for one entry are separate records, joined by “and”; a condition that tells them apart may be missing. Equal values may be shown once. Read-outs that look alike come from different tables or passages of the source. Marks after values point to notes of the source that are not given here.

Assay: Pooled analysis of non-compartmental plasma PK of single-dose selumetinib in healthy subjects, by ethnicity
Type: in vivo, human
Conditions: for DN AUC / DN AUC(0–12) / DN Cmax: geometric mean (%CV)
Experimental: All the studies included in the pooled analysis were conducted in accordance with the ethical principles outlined in the Declaration of Helsinki and the International Council on Harmonization Good Clinical Practice. Written informed consent was obtained from all subjects prior to any study-related procedures.
The pooled analysis database was constructed using data collected in 10 studies (Online Resource 1). PK data were taken from Study 86 (Asian study) and Studies 66, 69, 71, 78, 80, 81, 82, 83 and 85 (Western studies), while pharmacogenetic data were obtained from Study 86 (Asian study) and Studies 66 and 83 (Western studies). Informed consent for genetic assessment was as follows: Study 66, 21 of 27 volunteers gave consent (one of these volunteers discontinued treatments); Study 83, all 26 volunteers gave consent; Study 86, 45 of 72 volunteers gave consent.
Further inclusion criteria for the database included fasted subjects dosed with the selumetinib capsule formulation used for Phase III. This meant exclusion of data from other oral formulations used in study 78 and intravenous formulation used in study 80. Data were included solely from study arms where there was an absence of other treatments (e.g. rifampicin, fluconazole) and from subjects with normal renal and hepatic function.
A merged dataset containing subject identifier, non-compartmental PK parameters and demographics was constructed.
The PK parameters AUC, AUC0–12 and Cmax were normalized (abbreviated as DN) for each subject, by dividing the specific PK parameter by the nominal dose (in mg units) and for dose per kg of body weight (abbreviated as DWN) using the following formula: PK parameter value / (nominal dose in mg units / subjects baseline body weight in kg units).
The majority of subjects in the Western studies were of White ethnicity, thus this formed the reference category for comparison. Statistical comparisons of selumetinib PK were undertaken between the following ethnic groups: Western vs All Asian; White vs Black; White vs All Asian; White vs Japanese; White vs non-Japanese Asian; White vs Indian. The comparisons were performed by fitting multivariate models to the PK parameters of interest (e.g. dose-normalized AUC and Cmax), with a stepwise backward selection of the covariates including ethnicity, age, sex, and weight.
Bioanalysis was performed by Covance, USA. […] After addition of deuterated internal standard, samples were extracted by protein precipitation by the addition of 4 volumes of methanol:acetonitrile. After centrifugation, the supernatants were […] to dryness under nitrogen at 50°C and reconstituted in methanol;water before analysis. Extraction recovery was approximately 93%. […] The typical liquid chromatography system was a Prominence SIL-20AC (Shimadzu, Tokyo, Japan). A Phenomenex Luna C18 column was used and maintained at 30°C. A gradient mobile phase system was used with 0.1% formic acid in water (A) or acetonitrile (B) with a flow rate of 0.500 mL/min and the gradient running from 25% B to 65% B over 2 minutes then increasing to 95% B over 0.1 minutes and held for 0.5 minutes before re-equilibration. The mass spectrometer used was an API 5000 or 5500 triple quadruple mass spectrometer (AB Sciex, Foster City, CA, USA). This was run in positive electrospray, multiple reaction monitoring, with an ionspray voltage of 5500 V and TurboIonSpray temperature of 600°C with transitions of 459.0/397.2 monitored.

[1] = All Asian (N = 72), healthy subjects, single dose, doses pooled
[2] = All Asian group compared with Western group
[3] = Black (N = 87), healthy subjects, single dose, doses pooled
[4] = Indian (N = 9), healthy subjects, single dose
[5] = Japanese (N = 27), healthy subjects, single dose, doses pooled
[6] = Western (N = 236), healthy subjects, single dose, doses pooled
[7] = White (N = 149), healthy subjects, single dose, doses pooled
[8] = non-Japanese Asian (N = 36), healthy subjects, single dose, doses pooled
[9] = non-Japanese Asian compared to White

Cn1cnc2c(F)c(Nc3ccc(Br)cc3Cl)c(C(=O)NOCCO)cc21 [selumetinib, Selumetinib]
DN AUC [1]: 79.8 ng.h/mL/mg and 79.8 (23.6) ng.h/mL/mg | DN AUC(0–12) [1]: 61.7 ng.h/mL/mg and 61.7 (24.6) ng.h/mL/mg | DN Cmax [1]: 26.3 (30.9) ng/mL/mg | tmax (All Asian (N = 72), healthy subjects, single dose, median (min, max)): 1.0 (1, 4) h | percentage by which dose-normalized AUC is higher [2]: 35% | percentage by which dose-normalized Cmax is higher [2]: 39% | dose-normalized selumetinib exposure higher (Asian subjects compared with Western subjects, single dose 25 to 75 mg): 35–39% | DN AUC [3]: 53.4 ng.h/mL/mg and 53.4 (26.4) ng.h/mL/mg | DN AUC(0–12) [3]: 43.3 ng.h/mL/mg and 43.3 (26.7) ng.h/mL/mg | DN Cmax [3]: 16.9 (39.6) ng/mL/mg | tmax (Black (N = 87), healthy subjects, single dose, median (min, max)): 1.0 (1, 4) h | DN AUC [4]: 69.5 ng.h/mL/mg and 69.5 (16.7) ng.h/mL/mg | DN AUC(0–12) [4]: 53.5 ng.h/mL/mg and 53.5 (19.6) ng.h/mL/mg | DN Cmax [4]: 28.1 (16.0) ng/mL/mg | tmax (Indian (N = 9), healthy subjects, single dose, median (min, max)): 1.0 (1, 2) h | percentage increase in geomean dose-normalized AUC (Indian compared to White): 22% | percentage increase in geomean dose-normalized Cmax (Indian compared to White): 41% | DN AUC [5]: 84.8 ng.h/mL/mg and 84.8 (21.0) ng.h/mL/mg | DN AUC(0–12) [5]: 65.7 ng.h/mL/mg and 65.7 (24.1) ng.h/mL/mg | DN Cmax [5]: 28.7 (31.0) ng/mL/mg | tmax (Japanese (N = 27), healthy subjects, single dose, median (min, max)): 1.0 (1, 3) h | percentage increase in geomean dose-normalized AUC (Japanese compared to White): 51% | percentage increase in geomean dose-normalized Cmax (Japanese compared to White): 45% | DN AUC (Western (N = 235), healthy subjects, single dose, doses pooled): 52.4 ng.h/mL/mg and 52.4 (24.9)^‡ ng.h/mL/mg | t1/2 (Western (N = 235), healthy subjects, single dose, arithmetic mean (SD)): 9.1 (2.91)^‡ h | DN AUC(0–12) [6]: 42.9 ng.h/mL/mg and 42.9 (25.1) ng.h/mL/mg | DN Cmax [6]: 17.4 (35.6) ng/mL/mg | tmax (Western (N = 236), healthy subjects, single dose, median (min, max)): 1.0 (1, 4) h | DN AUC (White (N = 148), healthy subjects, single dose, 25-75 mg doses pooled): 51.9 ng.h/mL/mg and 51.9 (23.9)^† ng.h/mL/mg | DN AUC(0–12) [7]: 42.7 ng.h/mL/mg and 42.7 (24.2) ng.h/mL/mg | DN Cmax [7]: 17.7 (33.2) ng/mL/mg | tmax (White (N = 149), healthy subjects, single dose, median (min, max)): 1.0 (1, 4) h | half-life (human, plasma, oral, 25 mg, Indian (N = 9), healthy subjects, single dose, arithmetic mean (SD)): 9.5 h | half-life (human, plasma, oral, All Asian (N = 72), healthy subjects, single dose, arithmetic mean (SD)): 10.4 h | half-life (human, plasma, oral, Black (N = 87), healthy subjects, single dose, arithmetic mean (SD)): 8.7 h | half-life (human, plasma, oral, Japanese (N = 27), healthy subjects, single dose, arithmetic mean (SD)): 11.5 h | half-life (human, plasma, oral, White (N = 148), healthy subjects, single dose, arithmetic mean (SD)): 9.3 h | tmax (human, plasma, oral, all ethnic groups, read-out: median tmax): 1 to 1.6 h | half-life (human, plasma, oral, non-Japanese Asian (N = 36), healthy subjects, single dose, arithmetic mean (SD)): 9.8 h | tmax (human, plasma, oral, non-Japanese Asian (N = 36), healthy subjects, single dose, median (min, max), read-out: tmax): 1.6 h | DN AUC [8]: 78.9 ng.h/mL/mg and 78.9 (25.4) ng.h/mL/mg | DN AUC(0–12) [8]: 61.1 ng.h/mL/mg and 61.1 (24.6) ng.h/mL/mg | DN Cmax [8]: 24.3 (32.3) ng/mL/mg | differences in the geomeans for dose-normalized AUC and dose-normalized Cmax (non-Japanese Asian and Indian against Japanese): 2 to 18% | percentage increase in geomean dose-normalized AUC [9]: 37% | percentage increase in geomean dose-normalized Cmax [9]: 20%
